Biological target: GSPT1 (Homo sapiens, UniProt P15170+Q96SW2)
Test: GSPT1 Cellular Degradation Assay (DF15-GSPT1-ePL)
Format: cell-based
Set-up: expressed in transfected cells
Conditions: DF15-GSPT1-ePL cells, 20 hours
Summary of the method: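 Human DF15 cells co-expressing a GSPT1–ePL fusion were treated with compound in RPMI 1640/10% FBS for 20 h at 37 °C. GSPT1 level was read by enzyme-fragment-complementation luminescence after 60 min with detection reagent. The reference degrader at […] defined 75% response; DC50 and Dmax were reported.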

GSPT1, sequence (P15170 whole entry): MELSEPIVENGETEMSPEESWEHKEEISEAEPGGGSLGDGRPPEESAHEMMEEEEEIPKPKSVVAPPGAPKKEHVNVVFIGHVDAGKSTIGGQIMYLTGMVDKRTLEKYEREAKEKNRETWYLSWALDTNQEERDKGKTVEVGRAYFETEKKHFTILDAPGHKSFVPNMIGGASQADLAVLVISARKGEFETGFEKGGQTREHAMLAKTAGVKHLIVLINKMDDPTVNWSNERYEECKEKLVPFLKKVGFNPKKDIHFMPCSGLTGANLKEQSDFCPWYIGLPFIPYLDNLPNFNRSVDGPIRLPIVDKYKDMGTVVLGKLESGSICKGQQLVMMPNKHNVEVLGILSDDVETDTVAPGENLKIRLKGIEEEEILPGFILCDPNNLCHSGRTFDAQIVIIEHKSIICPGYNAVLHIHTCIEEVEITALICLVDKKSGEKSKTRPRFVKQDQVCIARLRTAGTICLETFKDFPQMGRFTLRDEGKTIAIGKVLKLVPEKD
GSPT1, sequence (Q96SW2 whole entry): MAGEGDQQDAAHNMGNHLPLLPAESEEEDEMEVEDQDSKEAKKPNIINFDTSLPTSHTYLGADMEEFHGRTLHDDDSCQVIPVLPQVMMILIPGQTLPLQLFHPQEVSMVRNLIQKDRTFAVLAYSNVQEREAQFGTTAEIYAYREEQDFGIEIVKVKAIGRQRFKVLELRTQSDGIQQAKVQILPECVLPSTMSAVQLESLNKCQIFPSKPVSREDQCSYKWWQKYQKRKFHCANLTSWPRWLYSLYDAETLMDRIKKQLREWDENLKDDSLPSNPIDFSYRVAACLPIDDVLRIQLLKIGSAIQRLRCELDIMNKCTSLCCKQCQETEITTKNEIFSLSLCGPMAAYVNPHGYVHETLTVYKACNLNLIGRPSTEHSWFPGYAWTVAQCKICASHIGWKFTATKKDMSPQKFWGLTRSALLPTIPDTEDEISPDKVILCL
GSPT1, sequence (Q16531 whole entry partner): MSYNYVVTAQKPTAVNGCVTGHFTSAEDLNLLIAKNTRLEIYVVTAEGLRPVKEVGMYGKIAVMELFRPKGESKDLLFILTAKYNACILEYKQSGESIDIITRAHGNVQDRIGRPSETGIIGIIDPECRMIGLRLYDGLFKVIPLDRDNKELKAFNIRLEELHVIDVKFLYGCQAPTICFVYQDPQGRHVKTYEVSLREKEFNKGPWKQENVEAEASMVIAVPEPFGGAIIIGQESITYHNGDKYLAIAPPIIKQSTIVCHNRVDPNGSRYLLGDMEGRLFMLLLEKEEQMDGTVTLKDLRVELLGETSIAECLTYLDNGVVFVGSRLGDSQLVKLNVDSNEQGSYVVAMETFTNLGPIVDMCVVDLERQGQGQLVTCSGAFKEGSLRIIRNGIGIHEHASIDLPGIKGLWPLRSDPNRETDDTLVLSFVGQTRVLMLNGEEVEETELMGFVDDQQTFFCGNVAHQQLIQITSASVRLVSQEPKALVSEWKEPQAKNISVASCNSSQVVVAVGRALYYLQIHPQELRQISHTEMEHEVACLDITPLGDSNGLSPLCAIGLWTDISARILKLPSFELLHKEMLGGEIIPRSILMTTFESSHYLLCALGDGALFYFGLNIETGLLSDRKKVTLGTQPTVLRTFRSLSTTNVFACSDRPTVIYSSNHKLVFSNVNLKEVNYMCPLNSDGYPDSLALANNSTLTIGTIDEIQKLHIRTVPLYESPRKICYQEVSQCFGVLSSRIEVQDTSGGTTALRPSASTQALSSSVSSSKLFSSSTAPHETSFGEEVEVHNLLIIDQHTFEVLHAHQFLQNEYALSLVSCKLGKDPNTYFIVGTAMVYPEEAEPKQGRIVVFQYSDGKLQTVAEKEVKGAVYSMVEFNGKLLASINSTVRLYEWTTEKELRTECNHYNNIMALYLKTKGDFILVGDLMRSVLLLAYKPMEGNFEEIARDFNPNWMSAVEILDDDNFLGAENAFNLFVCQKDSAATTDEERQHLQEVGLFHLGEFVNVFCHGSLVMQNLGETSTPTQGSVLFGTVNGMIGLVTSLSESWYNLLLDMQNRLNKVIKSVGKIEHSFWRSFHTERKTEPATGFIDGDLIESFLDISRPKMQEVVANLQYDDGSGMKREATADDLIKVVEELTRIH

DC50: > 14 µM
Dmax: 46%
SMILES: COc1c(COC(=O)Nc2ccc(Oc3ccc(F)c(F)c3)cc2)ccc2c1C(=O)N([C@H]1CCC(=O)NC1=O)C2 (single isomer, unassigned) [Example 35, {2-[(3 S)-2,6-dioxopiperidin-3-yl]-4-methoxy-3-oxo-2,3-dihydro-1H-isoindol-5-yl}methyl N-[4-(3,4-difluorophenoxy)phenyl]carbamate]

From patent US20250084056A1, “SUBSTITUTED OXOISOINDOLINYL PIPERIDINE-2,6-DIONE COMPOUNDS” (BRISTOL-MYERS SQUIBB COMPANY, priority 2023, published 2025)
